Measured values as given in patent publication US11278509B2, “Lithium salts of N-substituted glycine compounds and uses thereof” (SyneuRx International (Taiwan) Corp., priority 2017, dated 2022).

Columns and labels:
Format in all cases: in vivo, C57BL/6J male mice
MK801-treated mice [1] = assay: Barnes maze task, spatial learning and memory; settings: MK-801 0.2 mg/kg i.p.
Protocol: (§1) All C57BL/6J male mice were purchased from Laboratory Animal Center of the College of Medicine of National Taiwan University. The mice were group housed (3-5 mice per cage) with food and water available ad libitum in polysulfone ventilated cages (Alternative Design, AR, USA) in the animal rooms of the Psychology Department of National Taiwan University. The colony was maintained on a 12/12-h light/dark cycle at the temperature of 22±2° C. and all behavioral studies were performed during dark cycle. All animals used in this study were adult mice (at least 2.5 months of age). All animal procedures were performed according to the protocols approved by Animal Care and Use Committee of National Taiwan University.
(§2) MK801, also known as dizocilpine, is an antagonist of NMDA receptor. Mice in Groups 2-6 were received an acute administration of MK-801 (a NMDA receptor antagonist, dissolved in normal saline, 0.1 or 0.2 mg/kg, i.p.) 20 min prior to behavioral tests. Mice in Groups 3-6 were received an oral gavage of N-methylglycine or lithium N-methylglycine, respectively (dissolved in PBS) 15 min prior to MK801 administration. The […] molarities of lithium N-methylglycine (300 mg/kg and 1000 mg/kg) were equal to those of N-methylglycine (278 mg/kg and 927 mg/kg), respectively.
(§3) Two cohorts ([…]) of mice were used in the present study, the cohort 1 (48 mice) were sequentially tested with open field (for MK801-induced hyper-locomotion) and pre-pulse inhibition (for sensor-motor gap function) tasks. The mice in cohort 2 (34 mice) were sequentially tested with Barnes maze (spatial learning and memory) task.
Mice were tested in a Barnes maze to examine spatial learning and memory as described previously (Barnes, 1979). This Barnes maze paradigm has been commonly examined in mouse models of CNS disorders, including, but not limited to, schizophrenia, depression, obsessive compulsive disorder, post-traumatic stress disorder, addiction disorders, Alzheimer's disease, frontotemporal dementia, Parkinson's disease, Duchenne muscular dystrophy, stroke, and Fragile X syndrome (see Cook et al., 2014; Gotz and Ittner, 2008; Hendriksen and Vles, 2008; Conklin et al., 2000; Song et al., 2006; Lai et al., 2014; Vasterling et al., 2002; Hyman, 2005; Schaar et al., 2010; Santos et al., 2014; Zhu et al., 2007; Deckersbach et al., 2000). The testing apparatus was an elevated (50 cm above the floor) circular Plexiglas plate (100 cm in diameter) with 20 holes (7 cm in diameter, 7 cm between holes) evenly spaced around the perimeter. Mice were trained on the plate to identify an escape box (25×8×6 cm) hidden behind the target hole, which was designated as an analog to the hidden platform in the Morris water maze task. The location of the target hole was selected for a given mouse but randomized across mice. Mice were initially placed in the center of the plate covered by an opaque cylinder, and the cylinder was removed 10 s after the beginning of the trial with both an aversive tone (440 Hz, 85 dB) and light (100 lux) switched on. […] The spatial memory was measured by the “probe test.” All the training trials and the probe tests were videotaped for 3 min, and then the escape latency for the training trials and the percentage of time in different quadrants (target, left, right, and opposite) during the probe test were analyzed. […]

MK801-treated mice [2] = assay: Open field task, MK801-induced hyper-locomotion; settings: for effect on MK-801 induced hyper-locomotion activity (travel distance, open field): 60 minutes
Protocol: as §1, §2, §3
The open field task is a common measure of novel environment-induced exploratory behavior and general activity in both mice and rats. In the present study, the mice were placed in a Plexiglas cage (37.5 cm×21.5 cm×18 cm) under 50-65 lux light intensity, and their spontaneous locomotor activity was measured for 60 minutes using the EthoVision video tracking system (Noldus Information Technology, the Netherlands). The travel distance of each mouse was measured as an index of locomotion activity.

MK801-treated mice [3] = assay: Pre-pulse inhibition task, sensorimotor gating
Protocol: as §1
MK801, also known as dizocilpine, is an antagonist of NMDA receptor. Mice in Groups 2-6 were received an acute administration of MK-801 (a NMDA receptor antagonist, dissolved in normal saline, 0.1 or 0.2 mg/kg, i.p.) 20 min prior to behavioral tests. […]
Pre-pulse inhibition was used as an index of sensorimotor gating function using SR-LAB startle apparatus (San Diego Instruments, San Diego, Calif., USA). […] The percentage of pre-pulse inhibition was evaluated by the following formula: % PPI=100×[(PA score)−(pp-P score)]/(PA score), where the PA score was the average of the PA value in the middle blocks.

[4] = MK-801 0.1 or 0.2 mg/kg i.p. 20 min prior to test

C[C@]12N[C@H](Cc3ccccc31)c1ccccc12 [MK-801, dizocilpine, reference compound]
learning ability and memory in the Barnes maze task compared to the control group (MK801-treated mice [1]): poor learning ability and memory deficit | locomotion in the open field test compared to the control group (MK801-treated mice [2]; [4]): induced the hyper-locomotion | sensorimotor gating function in the pre-pulse inhibition test compared to the control group (MK801-treated mice [3]; [4]): induced the sensorimotor gating function deficit

CNCC(=O)O [N-methylglycine, reference compound]
memory phase (probe test) after MK-801 induced memory deficit (MK801-treated mice [1]; dose not stated): not effective | effect on MK-801 induced hyper-locomotion activity (travel distance, open field) (MK801-treated mice [2]; 927 mg/kg oral gavage 15 min prior to MK801 i.p.): marginally effective

CNCC(=O)O.[Li] [lithium N-methylglycine]
learning phase (escape latency in training trials) after MK-801 induced learning deficit (MK801-treated mice [1]; 1000 mg/kg oral gavage): enhances the learning | recovery of memory deficit induced by MK-801, compared with N-methylglycine (MK801-treated mice [1]): much superior as compared with N-methylglycine | memory phase (time in target zone, probe test) after MK-801 induced memory deficit (MK801-treated mice [1]; high dose (1000 mg/kg) oral gavage): completely ameliorated the memory deficit | dose dependence of effect on MK-801 induced hyper-locomotion (MK801-treated mice [2]; 300 mg/kg and 1000 mg/kg oral gavage + MK-801): Dose-dependent effect | effect on MK-801 induced hyper-locomotion activity (travel distance, open field) (MK801-treated mice [2]; 300 mg/kg oral gavage 15 min prior to MK801 i.p.): effective | effect on MK-801 induced hyper-locomotion activity (travel distance, open field) (MK801-treated mice [2]; 1000 mg/kg oral gavage 15 min prior to MK801 i.p.): effective | reducing hyperactivity induced by MK-801, compared with N-methylglycine (MK801-treated mice [2]; equal molarities: 300/1000 mg/kg vs 278/927 mg/kg): much more effective than N-methylglycine | effect on MK-801 induced deficit in pre-pulse inhibition (% PPI) (MK801-treated mice [3]; 300 mg/kg and 1000 mg/kg oral gavage + MK801, prepulse 78, 82, 90 dB, especially at 90 dB): alleviated
